The values that follow come from patent publication US11028061B2, “Modulators of myocyte lipid accumulation and insulin resistance and methods of use thereof” (Sanford Burnham Prebys Medical Discovery Institute, priority 2015, dated 2021).

Assay [1] is described as follows: Intracellular lipolysis rates. The assay is classed as cell-based. The following applies: data not shown.
Assay [2] relates to fatty acid transporter, CD36. Description: CD36 gene expression. The assay is classed as cell-based. Particulars: data not shown. Here is the method: (§1) Total RNA was isolated using RNeasy Mini Kit (Qiagen) according to the manufacturer's instructions. cDNA was synthesized using the Affinity Script cDNA Synthesis Kit (Stratagene) with 0.5 μg of total RNA. PCR reactions were performed in triplicate […] Roche LightCycler® 480 Instrument II) with specific primers for each gene.

The test system of a further assay is Akt. Description: Western blot of Akt phosphorylation. The following applies: 24 hours. The assay is classed as cell-based, human. The procedure: FIGS. 3A, B, C, E and F show SBI-477 stimulation of glucose uptake and activates insulin signaling in the absence of insulin. Human skeletal myotubes were incubated with SBI-477 at the indicated concentration for 24 hours and then treated with or without insulin (100 nM) for 30 minutes. Glucose ([3H]-2-deoxyglucose, 2-DG) uptake (FIG. 3A) and glycogen synthesis rates (FIGS. 3B and 3C) were measured (n=5) as described in Methods. *p<0.05 vs. Vehicle, no insulin, †p<0.05 vs. Vehicle/insulin by two-way ANOVA with Tukey's post hoc test. (FIG. 3E) Western blot analysis of human myotubes treated with SBI-477 for 24 hours was performed to determine the effect on steps of the insulin signaling pathway using specific Akt and IRS-1 phosphorylation sites as endpoints. Insulin treatment (100 nM) for 30 minutes was used as positive control. (FIG. 3F) Quantitation of the western blot data in […] is shown (n=5). *p<0.05 or **p<0.01 vs. Vehicle by one-way ANOVA with Bonferroni post hoc test. The data represent mean±SD.
Cells were lysed in the RIPA buffer containing 1% NP-40, 5 mM Na4P2O7, 1 mM EDTA, 20 mM NaF, 2 mM Na3VO4, 1× cOmplete™ protease inhibitor (Roche) and 1 mM phenylmethylsulfonyl fluoride. […] Protein quantification was performed using FluorChemQ (Alpha Innotech) and normalized to […]-actin or total protein where indicated.

The subject of a further assay is TXNIP. As to the kind of experiment: TXNIP expression by quantitative RT-PCR in human myotubes. The assay is classed as cell-based. The following applies: 24 hours. The procedure:
(§2) FIGS. 4A-C show downregulation of TXNIP and ARRDC4 expression by SBI-477. (FIG. 4A) TXNIP and ARRDC4 mRNA levels as determined by quantitative RT-PCR in human myotubes treated with SBI-477 (10 μM) or DGAT1 inhibitor (DGATi, […]) for 24 hours in the absence or presence of 100 μM oleate (n=4). Expression is shown relative to vehicle/BSA treatment. (FIG. 4B) TXNIP gene expression following exposure to a dose range of SBI-477 for 24 hours (n=4). (FIG. 4C) Left, Effect of SBI-477 on TXNIP protein levels as determined by western blot analysis by SBI-477. Right, Quantitation of the TXNIP western blot data is shown (n=5). *p<0.05 vs. Vehicle/BSA control, †p<0.05 vs. Vehicle/oleate by one-way ANOVA with Bonferroni post hoc test. The data are shown as mean±SD.
as §1

The test system of the next assay is ARRDC4. As to the kind of experiment: ARRDC4 expression by quantitative RT-PCR in human myotubes. The format is cell-based. Particulars: 24 hours. Here is the method: as §2, §1
A further assay concerns the target T1, MondoA (Homo sapiens, UniProt Q9HAP2).
T1 construct: Proteins were immunoprecipitated by using anti-MondoA (Bethyl Laboratories; catalog number A303-195A); endogenous in cells; host or cells: differentiated primary human skeletal myotubes
Description: ChIP of MondoA occupation on TXNIP and ARRDC4 promoter ChoREs. The format is cell-based. The following applies: human skeletal myotubes. The procedure: ChIP assays were performed as previously described (Gan, et al., Genes Dev., 2011, 25(24):2619-2630). Briefly, differentiated human skeletal myotubes were cross-linked with 1% formaldehyde for 10 minutes at room temperature, and glycine was added to stop the cross-linking reaction. Cells were harvested and lysed. For chromatin fragmentation, sonication was performed using a Bioruptor (Diagenode). Proteins were immunoprecipitated by using anti-MondoA (Bethyl Laboratories; catalog number A303-195A) or IgG control (Sigma; catalog number 15006) overnight at 4° C. DNA fragments were purified using a QIAquick PCR purification kit (Qiagen) and quantified by a LightCycler® 480 Instrument II (Roche) with the specific primers listed in Table 1.

T1 sequence (Q9HAP2 2-919 limits assumed): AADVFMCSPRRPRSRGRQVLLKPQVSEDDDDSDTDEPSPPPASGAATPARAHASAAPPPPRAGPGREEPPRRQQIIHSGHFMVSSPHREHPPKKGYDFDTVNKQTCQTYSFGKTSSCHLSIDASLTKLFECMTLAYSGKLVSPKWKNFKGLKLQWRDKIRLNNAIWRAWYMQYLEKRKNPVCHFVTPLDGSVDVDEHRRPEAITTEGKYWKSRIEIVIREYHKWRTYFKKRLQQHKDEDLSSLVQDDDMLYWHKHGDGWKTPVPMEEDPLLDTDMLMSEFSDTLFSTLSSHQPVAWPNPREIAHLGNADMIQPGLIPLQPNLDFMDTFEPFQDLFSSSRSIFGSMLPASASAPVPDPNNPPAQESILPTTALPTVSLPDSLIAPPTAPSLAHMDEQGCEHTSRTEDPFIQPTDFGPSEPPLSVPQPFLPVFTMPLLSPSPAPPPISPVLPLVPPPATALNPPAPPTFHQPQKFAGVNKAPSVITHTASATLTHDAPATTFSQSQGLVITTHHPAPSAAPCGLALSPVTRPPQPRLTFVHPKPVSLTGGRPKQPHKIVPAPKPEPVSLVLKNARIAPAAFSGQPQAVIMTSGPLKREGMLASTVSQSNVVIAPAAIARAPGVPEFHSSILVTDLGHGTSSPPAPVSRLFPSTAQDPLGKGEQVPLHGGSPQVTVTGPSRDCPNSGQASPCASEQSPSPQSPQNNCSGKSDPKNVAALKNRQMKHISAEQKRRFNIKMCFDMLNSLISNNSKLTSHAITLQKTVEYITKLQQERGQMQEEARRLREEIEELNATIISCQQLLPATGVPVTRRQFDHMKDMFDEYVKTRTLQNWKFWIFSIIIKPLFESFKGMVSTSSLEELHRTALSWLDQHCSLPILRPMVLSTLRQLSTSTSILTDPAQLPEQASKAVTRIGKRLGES

On to `COc1ccc(-c2csc(NC(=O)c3ccc(OCC(=O)N4CCOCC4)c(OC)c3)n2)cc1` [Cpd. 7, 3-methoxy-N-(4-(4-methoxyphenyl)thiazol-2-yl)-4-(2-morpholino-2-oxoethoxy)benzamide], for which the Intracellular lipolysis rates result in assay [1] is “not due to blocking cellular fatty acid uptake or increasing intracellular lipolysis rates”. In assay [2], the “Gene expression of CD36” value was “no effect”. Moreover, the “Phosphorylation of Akt” value with Akt is reported as “also increased”. Also, in the assay with TXNIP, the TXNIP expression entry is reported as “robust, dose-dependent downregulation”. Besides, the ARRDC4 expression entry with ARRDC4 is “robust, dose-dependent downregulation”. Besides, the “Occupation by MondoA of ChoREs in TXNIP and ARRDC4 promoter regions” value on MondoA is reported as “inhibited”.
